Test results from US6043261A, “Pyrrolodino imidines useful as nitric oxide synthase inhibitors” (G. D. Searle & Co., priority 1998, dated 2000).
Where a name gives a salt, the structure may show the parent alone. Read-outs that look alike come from different tables or passages of the source.

Assays:
[1] = molecular target: T1, human neuronal constitutive NOS (hncNOS) (Homo sapiens, UniProt P29475); assay: biochemical; conditions: recombinant human neuronal constitutive NOS, 37° C., 15 minutes, calmodulin 40-100 nM
T1 construct: made in house; host or cells: insect cells, baculovirus vector
Procedure: (§1) Citrulline Assay for Nitric Oxide Synthase
(§2) Nitric oxide synthase activity was measured by monitoring the conversion of L-[2,3-3H]-arginine to L-[2,3-3H]-citrulline (1,2). The cDNA for human inducible NOS (hiNOS) was isolated from a lcDNA library made from RNA extracted from a colon sample from a patient with ulcerative colitis; human endothelial constitutive NOS (hecNOS) was isolated from a lcDNA library made from RNA extracted from human umbilical vein endothelial cells (HUVEC); and human neuronal constitutive NOS (hncNOS) was isolated from a lcDNA library made from RNA extracted from human cerebellum from a cadaver. The recombinant enzymes were expressed in insect cells using a baculovirus vector. Enzyme activity was isolated from cell extracts and partially purified by DEAE-Sepharose chromatography (2). […] For constitutive NOS, calmodulin was included at a final concentration of 40-100 nM. Following incubation at 37° C. for 15 minutes, the reaction was terminated by addition of 300 μL cold buffer containing 10 mM EGTA, 100 mM HEPES (pH5.5) and 1.0 mM L-citrulline. The [3H]-citrulline was separated by chromatography on Dowex 50W X-8 cation exchange resin and radioactivity quantified with a liquid scintillation counter.

[2] = molecular target: T2, human inducible NOS (hiNOS) (Homo sapiens, UniProt P35228); assay: Citrulline Assay for Nitric Oxide Synthase, hiNOS; type: biochemical; conditions: recombinant human inducible NOS, 37° C., 15 minutes
T2 construct: made in house; host or cells: insect cells, baculovirus vector
Procedure: as §1, §2

[3] = molecular target: T3, human endothelial constitutive NOS (hecNOS) (Homo sapiens, UniProt P29474); assay: Citrulline Assay for Nitric Oxide Synthase, hecNOS; type: biochemical; conditions: recombinant human endothelial constitutive NOS, 37° C., 15 minutes, calmodulin 40-100 nM
T3 construct: made in house; host or cells: insect cells, baculovirus vector
Procedure: as §1, §2

[4] = molecular target: T4, RAW cell miNOS (Mus musculus, UniProt P29477); assay: Raw Cell Nitrite Assay; type: cell-based; conditions: RAW 264.7 cells, LPS-induced, L-arginine 30 μM, nitrite production 1 h at 37° C.
T4 construct: in the presence of LPS to induce NOS; endogenous in cells; host or cells: RAW 264.7 cells, LPS-induced
Procedure: RAW 264.7 cells are plated to confluency on a 96-well tissue culture plate grown overnight (17 h) in the presence of LPS to induce NOS. […] The media is removed from each well and the cells are washed twice with Krebs-Ringers-Hepes (25 mM, pH 7.4) with 2 mg/ml glucose. The cells are then placed on ice and incubated with 50 μL of buffer containing L-arginine (30 μM) ± inhibitors for 1 h. The assay is initiated by warming the plate to 37° C. in a water bath for 1 h. […] To terminate the cellular assay, the plate of cells is placed on ice and the nitrite-containing buffer removed and analyzed for nitrite using a previously published fluorescent determination for nitrite. All values are the average of triplicate wells and are compared to a background-subtracted induced set of cells (100% value).

[5] = tested on: Plasma Nitrites/Nitrates; assay: In Vivo Assay: plasma nitrites/nitrates, Endotoxin in Rat Model; set-up: species or system Rats; conditions: 10 mg/kg p.o., 1 hour prior to LPS 10 mg/kg i.p., plasma nitrites 5 hours post-treatment
Procedure: In Vivo Assay Rats were treated with an intraperitoneal injection of 10 mg/kg of endotoxin (LPS) with or without oral administration of the nitric oxide synthase inhibitors administered 1 hour prior to LPS. Plasma nitrites were measured 5 hours post-treatment.

Row | IC50 ([1]; read-out: IC50 hncNOS) [µM] | IC50 [2] [µM] | IC50 [3] [µM] | IC50 ([4]; read-out: IC50 RAW cell miNOS) [µM] | SMILES | % Inhibition of Plasma Nitrites/Nitrates [5] [%] | IC50 ([1]; IC50 hncNOS) [µM] | IC50 ([4]; IC50 RAW cell miNOS) [µM]
1 | 24 | 8.1 | 183 |  | N=C1CCCCC(C/C=C/c2ccccc2)N1 (stereo not shown) [Example 34, Hexahydro-7-(3-phenyl-2-propenyl)-1H-azepin-2-imine, Monohydrochloride] |  |  | 
2 | 74 | 9.7 | 575 | > 100 | N=C1CCCCC(CC2CCCCC2)N1 (stereo not shown) [Example 9, 7-(cyclohexylmethyl)hexahydro-1H-azepin-2-imine, Monohydrochloride] |  |  | 
3 | 30 | 62 | 651 | 170 | N=C1CCCCC(Cc2ccccc2)N1 (single isomer, unassigned; (+)) [Example 14, (+)-hexahydro-7-(phenylmethyl)-1H-azepin-2-imine, Monohydrochloride] |  |  | 
4 | 15 | 6.2 | 792 | 66 | Cl.N=C1CCCCC(Cc2ccccc2)N1 (stereo not shown) [Example 5, Hexahydro-7-(phenylmethyl)-1H-azepin-2-imine, Monohydrochloride] | 37 |  | 
5 | 14 | 3.6 | 599 | 1.8 | N=C1CCCCC(Cc2ccccc2)N1 (single isomer, unassigned; (-)) [Example 16, (-)-hexahydro-7-(phenylmethyl)-1H-azepin-2-imine, Monohydrochloride] |  |  | 
6 |  |  |  | 45 | N=C1CCCCC(CC2CC(c3ccccc3)=NO2)N1 (stereo not shown) [Example 191, 7-[(4,5-dihydro-3-phenylisoxazolyl-5-yl)methyl]hexahydro-1H-azepine-2-imine, Monotrifluoroacetic Acid Salt] |  |  | 
7 | 8.4 |  |  | 28 | N=C1CCCCC(CC2CO2)N1 (stereo not shown) [Example 21, Hexahydro-7-[(oxiran-2-yl)methyl]-1H-azepin-2-imine, Monohydrochloride] |  |  | 
8 | 118 | 19 | 836 | 80 | N=C1CCCCC(CCCc2ccccc2)N1 (stereo not shown) [Example 37, Hexahydro-7-(3-phenylpropyl)-1H-azepin-2-imine, Monohydrochloride] |  |  | 
9 | 8.3 | 3 | 458 | 5.4 | C[C@@H]1CC(=N)N[C@H]1Cc1ccccc1 (relative stereo) [Example 64, (±) (trans) 4-methyl-5-(phenylmethyl)pyrrolidin-2-imine, Monohydrochloride] | 35 |  | 
10 |  |  |  |  | NC1=NC(Cc2ccccc2)CCC1 (stereo not shown) [Example 94, 6-(phenylmethyl)piperidin-2-imine, Monohydrochloride] |  | 0.71 | 7.9

Row | SMILES | IC50 ([1]; read-out: IC50 hncNOS) [µM] | IC50 [2] [µM] | IC50 [3] [µM] | IC50 ([4]; read-out: IC50 RAW cell miNOS) [µM] | % Inhibition of Plasma Nitrites/Nitrates [5] [%] | IC50 ([1]; IC50 hncNOS) [µM] | IC50 ([4]; IC50 RAW cell miNOS) [µM]
11 | N=C1CCCC(CC2CCCCC2)N1 (stereo not shown) [Example 95, 6-(cyclohexylmethyl)piperidin-2-imine, Monohydrochloride] | 28 | 5.9 | 375 |  |  |  | 
